These results are taken from US20220064167A1, “IMIDAZO-PYRAZOLE CARBOXAMIDE DERIVATIVES AS ANTICANCER AGENTS AND THE SYNTHESIS THEREOF” (AVIDIN KFT., priority 2018, published 2022).

Usually IC50 stands for the concentration needed to halve the response being measured.

In test [1] the test system is HL60 human acute myeloid leukaemia cells in SCID immune-deficient mouse. The test can be described thus: leukaemia mouse model (FIG. 7). It counts as in vivo. The following applies: 3 mg/kg intravenously, 10 occasions. The method, then: The effect on leukaemia was studied on SCID immune-deficient mouse model inoculated intravenously with HL60 human acute myeloid leukaemia cells (ATCC) (1 million cells/animal). Two groups were formed from randomly selected mice, with 9 animals in each group. Group1: control group, it was only administered a carrier (0.1 mL, 0.9% NaCl solution) intravenously; group 2: group treated with compound 60, it was administered 3 mg/kg of compound 60 in PEG100:Solutol:PBS (1:4:15 vol ratio), intravenously.
The treatments were performed from the third day, on five consecutive occasions per week, for 2 weeks, on a total of 10 occasions. As time went on, every day we determined the number of surviving animals and represented it in percentage per group as compared to the total initial number of animals (FIG. 7). It can be seen that the 3 mg/kg dose of compound 60 administered intravenously was effective, the treatment with compound 60 increased the LD50 (from day 26 to day 42) and the survival rate of the animals.

Test [2] deals with U87MG (human glioblastoma). The test can be described thus: viability assay (Table 2). It counts as cell-based. As to conditions: U-87 MG, read-out: IC50 U87. The method, then:
(§1) For viability assays cells were seeded in 96 well plates (MCF7 and 4T1: 6000, HL60: 120.000 cells/well) and incubated overnight. Compounds were dissolved in dimethyl sulfoxide (DMSO). Cells were treated with an increasing concentration of compounds having the general formula (I.) (156 nM-100 μM). Cell viability was determined after 72h incubation. Resazurin reagent (Sigma-Aldrich) was dissolved in PBS (pH 7.4) at 0.15 mg/ml concentration, sterile filtered (0.22 μm, Merck Millipore) and aliquoted at −20° C. Resazurin reagent (Sigma-Aldrich) was added at a final concentration of 25 μg/ml. After 2 hours incubation at 37° C. 5% CO2 fluorescence (530 nm excitation/580 nm emission) was recorded on a multimode microplate reader (Cytofluor4000, PerSeptive Biosytems). Viability was calculated with relation to untreated control cells and blank wells containing media without cells. IC50 values (50% inhibiting concentration) were calculated by GraphPad Prism® 5 (La Jolla, Calif., USA).
(§2) GBM2 (human glioblastoma), HeLa (human cervical carcinoma), MIA PaCa-2 (human pancreas carcinoma) and U87MG (human glioblastoma) cells were maintained in Dulbecco's Modified Eagle Medium (DMEM) 10% fetal calf serum (FCS, Gibco). A375 (human melanoma), A549 (human lung adenocarcinoma) and HEP3B (human hepatoma) cells were maintained in Dulbecco's Modified Eagle Medium/Nutrient Mixture F-12 (DMEM/F12) 10% FCS.
(§3) Media were supplemented with 2 mM GlutaMAX, and 100 U/mL penicillin, 100 μg/mL streptomycin (Life Technologies, Carlsbad, Calif., USA). Cell cultures were maintained at 37° C. in a humidified incubator in an atmosphere of 5% CO2 (Sanyo, Japan).
(§4) Viability assays were performed as described in Example 102.

The subject of test [3] is HEP3B (human hepatoma). The test can be described thus: viability assay (Table 2). In kind it is cell-based. How it is done: as §1, §2, §3, §4
Test [4] deals with CD33 expression in HL-60 cells. The experiment in a line: quantitative real time PCR of stem cell marker (FIG. 3A). In kind it is cell-based, human. As to conditions: HL-60, 24 h after treatment, normalized to ACTB. How it is done: (§5) HL-60 cells (10×10^6) were plated in 100 mm tissue culture dishes (Corning Life Sciences) in RPMI 10% FCS. Cells were treated in 10 mL total volume with the compound described in Example 83 24 h after treatment, nucleic acid preparation was done by using the Bioneer RNA purification kit (Bioneer, Viral RNA extraction kit, Daejeon, South Korea) according to an already published protocol (Szebeni et al. 2017a). The quality and quantity of the isolated RNA were measured with NanoDrop1000 Version 3.8.1. (Thermo Fisher Scientific). Reverse transcription from 3 μg of total RNA was performed with the High-Capacity cDNA Archive Kit (Applied Biosystems, Foster City, Calif., USA) in a total volume of 30 μL according to the manufacturer's protocol. Quantitative-real time PCR was carried out using gene specific primers for CD33 (primer sequences: forward 5′ […] 3′, reverse 5′ […] 3′) and CD34, (primer sequences: forward 5′ gcgctttgcttgctgagt 3′, reverse 5′ […] 3′) using Sybr Green detection on a LightCycler Nano instrument (Roche, Hungary). Relative gene expression data was normalized to ACTB (beta actin, primer sequences: forward 5′ attggcaatgagcggttc 3′, reverse 5′ cgtggatgccacaggact 3′) expression.
On the technique in general: In qPCR the cycle at which signal appears reflects the starting amount.

In test [5] the test system is CD34 expression in HL-60 cells. The description is as above. In kind it is cell-based, human. As to conditions: HL-60, 24 h after treatment, normalized to ACTB. The method, then:
as §5

Test [6] concerns U937 (human lymphoma). The experiment in a line: viability assay (Table 2). It counts as cell-based. The following applies: U-937. How it is done:
as §1
(§6) HT168 (human melanoma), HT199 (human melanoma), HT29 (human colorectal adenocarcinoma), MOLT4 (human leukemia) and U937 (human lymphoma) cells were maintained in Roswell Park Memorial Institute 1640 medium (RPMI-1640) 10% FCS. SKOV-3 cells were maintained in Dulbecco's Modified Eagle Medium/McCoy's medium (DMEM/McCoy) 10% FCS.
as §3, §4

The test system of test [7] is SKOV-3 cells (ovarian adenocarcinoma). The experiment in a line: viability assay (Table 2). The following applies: Homo sapiens, SK-OV-3. It counts as cell-based. The method, then:
as §1, §6, §3, §4

For test [8], the system named is MOLT4 (human leukemia). The test can be described thus: viability assay (Table 2). As to conditions: MOLT-4. It counts as cell-based. The method, then:
as §1, §6, §3, §4

Test [9] deals with 4T1 mouse cells inoculated into the mammary gland of BalbC mouse. The experiment in a line: mammary carcinoma mouse model (FIG. 6). In kind it is in vivo. The following applies: 3 mg/kg intravenously, every other day from day 16, 6 occasions, compared to vehicle. How it is done: The effect on mammary carcinoma was studied on BalbC mouse model inoculated subcutaneously into the mammary gland with 4T1 mouse cells (ATCC) (100,000 cells/animal). Two groups were formed from randomly selected mice, with 8 animals in both groups. Group 1: control group, it was only administered a carrier (0.1 mL, 0.9% NaCl solution) intravenously; group 2: group treated with compound 83, it was administered 3 mg/kg of compound 83 in PEG100:Solutol:PBS (1:4:15 vol ratio), intravenously after the tumor reached 300 mm^3 (day 16). The treatments were performed from the sixteenth day, every other day, for a total of 6 occasions. Starting from the 16th day on every day the size of the increasing tumours was determined in the case of each animal, and the group average was represented per group (FIG. 6). The standard deviation was determined in SEM. It can be seen that the treatment with compound 83 reduced the size of the increasing mammary tumour.

The subject of test [10] is HeLa (human cervical carcinoma). The experiment in a line: viability assay (Table 2). It counts as cell-based. How it is done:
as §1, §2, §3, §4

In the case of `CC(C)(C)Nc1c(C(C)(C)C)[nH]c2c(C(=O)Nc3ccc(F)cc3)cnn12` [Example 60, 2-(Tert-butyl)-N-(4-fluorophenyl)-3-((tert-butyl-2-yl)amino)-1H-imidazo[1,2-b]pyrazole-7-carboxamide], the “survival rate of the animals” value in [1] was “increased”. The median survival time in [1] (control day 26) came to 42 days. The IC50 in test [2] and in test [3] was 250 nM throughout.
For the molecule `CC(C)(C)Nc1c(C(C)(C)C)[nH]c2c(C(=O)Nc3ccc(N)cc3)cnn12` [Example 83, N-(4-Aminophenyl)-2-(tert-butyl)-3-(tert-butylamino)-1H-imidazo[1,2-b]pyrazole-7-carboxamide], in test [4], the “expression of haematopoietic stem cell marker CD33” value is “decreased”. Moreover, the “expression of haematopoietic stem cell marker CD34” value in [5] is recorded as “decreased”. In addition, the IC50 in [6] was found to be 250 nM; in test [7], 150 nM; in [8] it was 150 nM; in test [10] it was 100 nM. In addition, the “size of the increasing mammary tumour” value in test [9] was “reduced”.
